The values below come from US20080039482A1, “SULFONAMIDO-MACROCYCLES AS TIE2 INHIBITORS AND SALTS THEREOF, PHARMACEUTICAL COMPOSITIONS COMPRISING SAME, METHODS OF PREPARING SAME AND USES OF SAME” (priority 2006, published 2008).

A word on the IC50: it is the midpoint of a concentration-inhibition curve.

For one experiment, the target named is Tie2 (Homo sapiens, UniProt Q02763). Put plainly: Tie-2-Kinase HTRF-Assay without kinase preactivation (assay 2). In kind it is biochemical. Details: fusion protein of GST and the intracellular domains of Tie-2; GST; made in house; host or cells: insect cells (Hi-5). To be noted: 10 μM ATP, pIC50 = -log IC50 in molar concentration. An excerpt: Tie2-inhibitory activity of compounds of the present invention was quantified employing two Tie2 HTRF assay as described in the following paragraphs.
Chain of Tie2 (Q02763 770-1124 limits assumed, species assumed): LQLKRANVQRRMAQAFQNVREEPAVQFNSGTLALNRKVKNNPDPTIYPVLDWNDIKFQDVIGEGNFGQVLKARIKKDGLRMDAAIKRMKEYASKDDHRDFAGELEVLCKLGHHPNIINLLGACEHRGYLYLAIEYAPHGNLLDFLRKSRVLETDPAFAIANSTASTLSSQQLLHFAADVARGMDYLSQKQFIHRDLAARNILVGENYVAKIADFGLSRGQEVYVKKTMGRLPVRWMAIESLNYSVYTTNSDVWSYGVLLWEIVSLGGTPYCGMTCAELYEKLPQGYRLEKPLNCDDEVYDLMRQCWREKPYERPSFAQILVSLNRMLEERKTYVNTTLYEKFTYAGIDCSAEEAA
A recombinant fusion protein of GST and the intracellular domains of Tie-2, expressed in insect cells (Hi-5) and purified by Glutathion-Sepharose affinity chromatography was used as kinase. Alternatively, commercially available GST-Tie2-fusion protein (Upstate Biotechnology, Dundee, Scotland) can be used As substrate for the kinase reaction the biotinylated peptide biotin-Ahx-EPKDDAYPLYSDFG (C-terminus in amid form) was used which can be purchased e.g. from the company Biosynthan GmbH (Berlin-Buch, Germany). Detection of phosphorylated product is achieved specifically by a trimeric detection complex consisting of the phosphorylated substrate, streptavidin-XLent (SA-XLent) which binds to biotin, and Europium Cryptate-labeled anti-phosphotyrosine antibody PT66 which binds to phosphorylated tyrosine.
Tie-2 (3.5 ng/measurement point) was incubated for 60 min at 22° C. in the presence of 10 μM adenosine-tri-phosphate (ATP) and 1 μM substrate peptide (biotin-Ahx-EPKDDAYPLYSDFG-NH2) with different concentrations of test compounds (0 μM and concentrations in the range 0.001-20 μM) in 5 μl assay buffer [50 mM Hepes/NaOH pH 7, 10 mM MgCl2, 0.5 mM MnCl2, 1.0 mM dithiothreitol, 0.01% NP40, protease inhibitor mixture (“Complete w/o EDTA” from Roche, 1 tablet per 2.5 ml), 1% (v/v) dimethylsulfoxide]. The reaction was stopped by the addition of 5 μl of an aqueous buffer (25 mM Hepes/NaOH pH 7.5, 0.28% (w/v) bovine serum albumin) containing EDTA (90 mM) and the HTRF (Homogeneous Time Resolved Fluorescence) detection reagents streptavidine-XLent (0.2 μM, from Cis Biointernational, Marcoule, France) and PT66-Eu-Chelate (0.3 ng/μl; a europium-chelate labelled anti-phospho-tyrosine antibody from Perkin Elmer).
(§1) The resulting mixture was incubated 1 h at 22° C. to allow the binding of the biotinylated phosphorylated peptide to the streptavidine-XLent and the PT66-Eu-Chelate. Subsequently the amount of phosphorylated substrate peptide was evaluated by measurement of the resonance energy transfer from the PT66-Eu-Chelate to the streptavidine-XLent. Therefore, the fluorescence emissions at 620 nm and 665 nm after excitation at 350 nm was measured in a HTRF reader, e.g. a Rubystar (BMG Labtechnologies, Offenburg, Germany) or a Viewlux (Perkin-Elmer). The ratio of the emissions at 665 nm and at […] was taken as the measure for the amount of phosphorylated substrate peptide. The data were normalised (enzyme reaction without inhibitor=0% inhibition, all other assay components but no enzyme=100% inhibition) and IC50 values were calculated by a 4 parameter fit using an inhouse software.
A general note: In TR-FRET formats the signal depends on donor and acceptor labels being close together.

Another experiment concerns the target T1, Aurora-C (Homo sapiens, UniProt Q9UQB9).
T1 construct: GST; made in house; host or cells: HEK293 (the text adds '(Sf9)', which contradicts this)
T1 sequence (Q9UQB9 1-309): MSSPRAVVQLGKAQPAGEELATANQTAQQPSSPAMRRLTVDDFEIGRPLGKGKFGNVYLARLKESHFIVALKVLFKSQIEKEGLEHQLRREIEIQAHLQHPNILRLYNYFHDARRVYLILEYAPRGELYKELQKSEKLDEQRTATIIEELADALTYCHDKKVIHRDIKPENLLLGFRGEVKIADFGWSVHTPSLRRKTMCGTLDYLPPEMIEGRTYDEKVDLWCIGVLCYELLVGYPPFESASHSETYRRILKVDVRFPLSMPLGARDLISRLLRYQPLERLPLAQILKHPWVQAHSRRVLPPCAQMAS
Put plainly: Aurora C HTRF assay (assay 5). As to conditions: IC50 assay 5/IC50 assay 2. In kind it is biochemical.
Excerpt: Assay 5: Aurora C HTRF Assay
Aurora-C inhibitory activity of compounds of the present invention was quantified employing the Aurora-C HTRF assay as described in the following paragraphs.
Recombinant fusion protein of GST and human Aurora-C was expressed in transiently transfected HEK293 cells (Sf9) and purified by Glutathion-Sepharose affinity chromatography. As substrate for the kinase reaction biotinylated peptide biotin-Ttds-FMRLRRLSTKYRT (C-terminus in amid form) was used which can be purchased e.g. form the company JERINI peptide technologies (Berlin, Germany). Aurora-C was incubated for 60 min at 22° C. in the presence of different concentrations of test compounds in 5 μl assay buffer [25 mM Hepes/NaOH pH 7.4, 0.5 mM MnCl2, 2.0 mM dithiothreitol, 0.1 mM sodium ortho-vanadate, 10 μM adenosine-tri-phosphate (ATP), […] substrate, 0.01% (v/v) TritonX-100 (Sigma), 0.05% (w/v) bovine serum albumin, 1% (v/v) dimethylsulfoxide]. The concentration of Aurora-C was adjusted depending of the activity of the enzyme lot and was chosen appropriate to have the assay in the linear range, typical concentrations were in the range of 0.3 nM. The reaction was stopped by the addition of 5 μl of a solution of HTRF detection reagents (0.2 μM streptavidine-XLent and 1.4 nM Anti-Phospho-(Ser/Thr) Akt substrate-Cryptate (Cis biointernational, France, product no. 61P02KAE), a labeled Phospho-(Ser/Thr) Akt substrate antibody [product #9611B, Cell Signalling Technology, Danvers, Mass., USA] labeled with Europium Cryptate, in an aqueous EDTA-solution (40 mM EDTA, 400 mM KF, 0.05% (w/v) bovine serum albumin in 25 mM HEPES/NaOH pH 7.0).
as §1, with “Anti-Phospho-(Ser/Thr) Akt substrate-Cryptate.” for “PT66-Eu-Chelate.”, “substrate” for “substrate peptide”, “Prot-A-EuK” for “PT66-Eu-Chelate”, “substrate.” for “substrate peptide.”

With `Cc1ccc(C2(C(=O)Nc3ccc(-c4cnc5nc4NCCCNS(=O)(=O)c4cccc(c4)N5)cc3)CC2)cc1` [Example 1, 1-p-Tolyl-cyclopropane-carboxylic acid [4-(13,13-dioxo-13λ^6-thia-2,4,8,12,19-pentaaza-tricyclo[12.3.1.1^3,7]nonadeca-1(18),3(19),4,6, 14,16-hexaen-6-yl)-phenyl]-amide], the IC50 on Tie2 is below 100 nM. Further, the “Selectivity vs. Aurora C” value at Aurora-C is above 20 fold.

Regarding `Cc1ccccc1C1(C(=O)Nc2ccc(-c3cnc4nc3NCCCNS(=O)(=O)c3cccc(c3)N4)cc2)CC1` [Example 2, 1-o-Tolyl-cyclopropane-arboxylic acid [4-(13,13-dioxo-13λ^6-thia-2,4,8,12,19-pentaaza-tricyclo[12.3.1.1^3,7]nonadeca-1(18),3(19),4,6,14,16-hexaen-6-yl)-phenyl]-amide], the IC50 on Tie2 is below 100 nM. In addition, the “Selectivity vs. Aurora C” value on Aurora-C is recorded as above 20 fold.

In turn, `COc1cccc(C2(C(=O)Nc3ccc(-c4cnc5nc4NCCCNS(=O)(=O)c4cccc(c4)N5)cc3)CC2)c1` [Example 3, 1-(3-Methoxy-phenyl)-cyclopropane-carboxylic acid [4-(13,13-dioxo-13λ^6-thia-2,4,8,12,19-pentaaza-tricyclo[12.3.1.1^3,7]nonadeca-1(18),3(19),4,6,14,16-hexaen-6-yl)-phenyl]-amide] had a half-maximal inhibitory concentration (IC50) against Tie2 below 100 nM. In addition, the “Selectivity vs. Aurora C” value on Aurora-C is on record as above 20 fold.

In the case of `COc1ccc(C2(C(=O)Nc3ccc(-c4cnc5nc4NCCCNS(=O)(=O)c4cccc(c4)N5)cc3)CC2)cc1` [Example 4, 1-(4-Methoxy-phenyl)-cyclopropane-carboxylic acid [4-(13,13-dioxo-13λ^6-thia-2,4,8,12,19-pentaaza-tricyclo[12.3.1.1^3,7]-nonadeca-1(18),3(19),4,6,14,16-hexaen-6-yl)-phenyl]-amide], the IC50 on Tie2 is below 100 nM. For the same compound, on Aurora-C, the “Selectivity vs. Aurora C” value is reported as above 20 fold.

The compound `O=C(Nc1ccc(-c2cnc3nc2NCCCNS(=O)(=O)c2cccc(c2)N3)cc1)C1(c2cccc(Cl)c2)CC1` [Example 5, 1-(3-Chloro-phenyl)-cyclopropane-arboxylic acid [4-(13,13-dioxo-13λ^6-thia-2,4,8,12,19-pentaaza-tricyclo[12.3.1.1^3,7]-nadeca-1(18),3(19),4,6,14,16-hexaen-6-yl)-phenyl]-amide] returned an IC50 at Tie2 below 100 nM. The “Selectivity vs. Aurora C” value on Aurora-C is above 20 fold.

`O=C(Nc1ccc(-c2cnc3nc2NCCCNS(=O)(=O)c2cccc(c2)N3)cc1)C1(c2ccc(Cl)cc2)CC1` [Example 6, 1-(4-Chloro-phenyl)-cyclopropane-carboxylic acid [4-(13,13-dioxo-13λ^6-thia-2,4,8,12,19-pentaaza-tricyclo[12.3.1.1^3,7]-nonadeca-1(18),3(19),4,6,14,16-hexaen-6-yl)-phenyl]-amide] came in with a 50% inhibitory concentration (IC50) on Tie2 below 100 nM. Moreover, the “Selectivity vs. Aurora C” value on Aurora-C was above 20 fold.

On to `O=C(Nc1ccc(-c2cnc3nc2NCCCNS(=O)(=O)c2cccc(c2)N3)cc1)C1(c2ccccc2F)CC1` [Example 7, 1-(2-Fluoro-phenyl)-cyclopropane-carboxylic acid [4-(13,13-dioxo-13λ^6-thia-2,4,8,12,19-pentaaza-tricyclo[12.3.1.1^3,7]nonadeca-1(18),3(19),4,6,14,16-hexaen-6-yl)-phenyl]-amide], for which the concentration for half-maximal inhibition (IC50) at Tie2 was below 100 nM. On Aurora-C, the “Selectivity vs. Aurora C” value is recorded as above 20 fold.

`O=C(Nc1ccc(-c2cnc3nc2NCCCNS(=O)(=O)c2cccc(c2)N3)cc1)C1(c2cccc(F)c2)CC1` [Example 8, 1-(3-Fluoro-phenyl)-cyclopropane-carboxylic acid [4-(13,13-dioxo-13λ^6-thia-2,4,8,12,19-pentaaza-tricyclo[12.3.1.1^3,7]nonadeca-1(18),3(19),4,6,14,16-hexaen-6-yl)-phenyl]-amide] displayed an IC50 against Tie2 below 100 nM. At Aurora-C, the “Selectivity vs. Aurora C” value was above 20 fold.

Compound `O=C(Nc1ccc(-c2cnc3nc2NCCCNS(=O)(=O)c2cccc(c2)N3)cc1)C1(c2ccc(F)cc2)CC1` [Example 9, 1-(4-Fluoro-phenyl)-cyclopropane-carboxylic acid [4-(13,13-dioxo-13λ^6-thia-2,4,8,12,19-pentaaza-tricyclo[12.3.1.1^3.7]nonadeca-1(18),3(19),4,6,14,16-hexaen-6-yl)-phenyl]-amide] came in with an IC50 on Tie2 below 100 nM. Besides, on Aurora-C, the “Selectivity vs. Aurora C” value was above 20 fold.

In the case of `O=C(Nc1ccc(-c2cnc3nc2NCCCNS(=O)(=O)c2cccc(c2)N3)cc1)C1(c2cccc(C(F)(F)F)c2)CC1` [Example 10, 1-(3-Trifluoromethyl-phenyl)-cyclopropane-carboxylic acid [4-(13,13-dioxo-13λ^6-thia-2,4,8,12,19-pentaaza-tricyclo[12.3.1.1^3,7]nonadeca-1(18),3(19),4,6,14,16-hexaen-6-yl)-phenyl]-amide], at Tie2, the IC50 was in the range of 100 to 1000 nM. The “Selectivity vs. Aurora C” value at Aurora-C is given as above 20 fold.

Turning to `O=C(Nc1ccc(-c2cnc3nc2NCCCNS(=O)(=O)c2cccc(c2)N3)cc1)C1(c2ccc(C(F)(F)F)cc2)CC1` [Example 11, 1-(4-Trifluoromethyl-phenyl)-cyclopropane-carboxylic acid [4-(13,13-dioxo-13λ^6-thia-2,4,8,12,19-pentaaza-tricyclo[12.3.1.1^3,7]nonadeca-1(18),3(19),4,6,14,16-hexaen-6-yl)-phenyl]-amide], at Tie2, the half-inhibitory concentration (IC50) was below 100 nM. At Aurora-C, the “Selectivity vs. Aurora C” value is listed as above 20 fold.
